Data set [1] addresses human acetyl-CoA carboxylase 1 (hACC1) (Homo sapiens, UniProt Q13085). Briefly: In vitro ACC enzyme inhibition (ADP fluorescence), hACC1. In kind it is biochemical. Particulars: pre-incubated 15 minutes, 1 hour at room temperature. Here is the method:
(§1) To evaluate the ability of a test compound to inhibit acetyl-CoA carboxylase (ACC) by determining the IC50 value.
(§2) 1. Proteins: human acetyl-CoA carboxylase 1 (hACC1) and human acetyl-CoA carboxylase 2 (hACC2).
(§3) 3. Cofactors: acetyl-CoA and ATP (adenosine triphosphate)
(§4) 4. Activator: potassium citrate
(§5) 1. One-fold enzyme/substrate/cofactor was added to microwells of a well plate.
(§6) 2. According to an Acoustic technique, a solution of a compound in DMSO was added to the enzyme mixture, and the resulting mixture was pre-incubated for 15 minutes.
(§7) 3. ATP was added thereto to initiate the reaction, and the mixture was shaken uniformly.
(§8) 4. The mixture was incubated for 1 hour at room temperature.
(§9) 5. The reaction was quenched, and then incubated for additional 40 minutes.
(§10) 6. A detection reagent was added and the resulting mixture was incubated for 30 minutes.
(§11) 7. Fluorescence was tested.
(§12) 8. Data analysis was performed: based on the standard curve of ADP, the fluorescence signal was converted to the ADP product concentration and the enzyme activity was calculated. The curve was fitted using Graphpad Prism software to obtain the IC50 value.

In data set [2] the test system is HFD+CCl4-induced NASH mouse model. The data set is described as follows: In vivo pharmacodynamic study in HFD+CCl4-induced NASH mouse model. Particulars: HFD+CCl4 mice; 0.5, 1, 3 mg/kg by gavage QD day 0 to day 27; reference I-181 3 mg/kg. The text has this:
To study the effect of a compound on improving NASH and liver fibrosis in an HFD+CCl4 mouse model, with I-181 as a reference compound.
I-181 is an acetyl-CoA carboxylase inhibitor and is currently undergoing a phase II clinical study on non-alcoholic fatty liver disease (NAFLD). The HFD+CCl4 mouse model used in this study is an animal model that simulates human non-alcoholic fatty liver disease evolving into NASH. High-fat diet leads to fat accumulation and steatosis in liver cells; CCl4 (intraperitoneal injection, twice a week) simulates the “second hit” of liver injury.
The modeling for this experiment included two steps: high-fat diet feeding and CCl4 induction. Firstly, the mice were fed with high-fat diet to induce non-alcoholic fatty liver, and the mice weighing more than (>) 38 g were selected and continuously fed with high-fat diet, accompanied by the intraperitoneal injection of 25% CCl4 ([…], twice a week, for a total of four weeks). The day of starting CCl4 administration was set as day 0, and the time of starting CCl4 administration was set as hour 0. On the day of starting CCl4 administration, the administration by gavage was started, and the administration volume of each group was 5 mL/kg, once a day for 4 weeks (28 days). The injection time of CCl4 should be more than 4 hours apart from the first administration time point of the day. […]

In data set [3] the target is human acetyl-CoA carboxylase 2 (hACC2) (Homo sapiens, UniProt O00763). Briefly: In vitro ACC enzyme inhibition (ADP fluorescence), hACC2. Particulars: pre-incubated 15 minutes, 1 hour at room temperature. It counts as biochemical. The method, then: as §1, §2, §3, §4, §5, §6, §7, §8, §9, §10, §11, §12
Chain of human acetyl-CoA carboxylase 2 (hACC2) (O00763 whole entry): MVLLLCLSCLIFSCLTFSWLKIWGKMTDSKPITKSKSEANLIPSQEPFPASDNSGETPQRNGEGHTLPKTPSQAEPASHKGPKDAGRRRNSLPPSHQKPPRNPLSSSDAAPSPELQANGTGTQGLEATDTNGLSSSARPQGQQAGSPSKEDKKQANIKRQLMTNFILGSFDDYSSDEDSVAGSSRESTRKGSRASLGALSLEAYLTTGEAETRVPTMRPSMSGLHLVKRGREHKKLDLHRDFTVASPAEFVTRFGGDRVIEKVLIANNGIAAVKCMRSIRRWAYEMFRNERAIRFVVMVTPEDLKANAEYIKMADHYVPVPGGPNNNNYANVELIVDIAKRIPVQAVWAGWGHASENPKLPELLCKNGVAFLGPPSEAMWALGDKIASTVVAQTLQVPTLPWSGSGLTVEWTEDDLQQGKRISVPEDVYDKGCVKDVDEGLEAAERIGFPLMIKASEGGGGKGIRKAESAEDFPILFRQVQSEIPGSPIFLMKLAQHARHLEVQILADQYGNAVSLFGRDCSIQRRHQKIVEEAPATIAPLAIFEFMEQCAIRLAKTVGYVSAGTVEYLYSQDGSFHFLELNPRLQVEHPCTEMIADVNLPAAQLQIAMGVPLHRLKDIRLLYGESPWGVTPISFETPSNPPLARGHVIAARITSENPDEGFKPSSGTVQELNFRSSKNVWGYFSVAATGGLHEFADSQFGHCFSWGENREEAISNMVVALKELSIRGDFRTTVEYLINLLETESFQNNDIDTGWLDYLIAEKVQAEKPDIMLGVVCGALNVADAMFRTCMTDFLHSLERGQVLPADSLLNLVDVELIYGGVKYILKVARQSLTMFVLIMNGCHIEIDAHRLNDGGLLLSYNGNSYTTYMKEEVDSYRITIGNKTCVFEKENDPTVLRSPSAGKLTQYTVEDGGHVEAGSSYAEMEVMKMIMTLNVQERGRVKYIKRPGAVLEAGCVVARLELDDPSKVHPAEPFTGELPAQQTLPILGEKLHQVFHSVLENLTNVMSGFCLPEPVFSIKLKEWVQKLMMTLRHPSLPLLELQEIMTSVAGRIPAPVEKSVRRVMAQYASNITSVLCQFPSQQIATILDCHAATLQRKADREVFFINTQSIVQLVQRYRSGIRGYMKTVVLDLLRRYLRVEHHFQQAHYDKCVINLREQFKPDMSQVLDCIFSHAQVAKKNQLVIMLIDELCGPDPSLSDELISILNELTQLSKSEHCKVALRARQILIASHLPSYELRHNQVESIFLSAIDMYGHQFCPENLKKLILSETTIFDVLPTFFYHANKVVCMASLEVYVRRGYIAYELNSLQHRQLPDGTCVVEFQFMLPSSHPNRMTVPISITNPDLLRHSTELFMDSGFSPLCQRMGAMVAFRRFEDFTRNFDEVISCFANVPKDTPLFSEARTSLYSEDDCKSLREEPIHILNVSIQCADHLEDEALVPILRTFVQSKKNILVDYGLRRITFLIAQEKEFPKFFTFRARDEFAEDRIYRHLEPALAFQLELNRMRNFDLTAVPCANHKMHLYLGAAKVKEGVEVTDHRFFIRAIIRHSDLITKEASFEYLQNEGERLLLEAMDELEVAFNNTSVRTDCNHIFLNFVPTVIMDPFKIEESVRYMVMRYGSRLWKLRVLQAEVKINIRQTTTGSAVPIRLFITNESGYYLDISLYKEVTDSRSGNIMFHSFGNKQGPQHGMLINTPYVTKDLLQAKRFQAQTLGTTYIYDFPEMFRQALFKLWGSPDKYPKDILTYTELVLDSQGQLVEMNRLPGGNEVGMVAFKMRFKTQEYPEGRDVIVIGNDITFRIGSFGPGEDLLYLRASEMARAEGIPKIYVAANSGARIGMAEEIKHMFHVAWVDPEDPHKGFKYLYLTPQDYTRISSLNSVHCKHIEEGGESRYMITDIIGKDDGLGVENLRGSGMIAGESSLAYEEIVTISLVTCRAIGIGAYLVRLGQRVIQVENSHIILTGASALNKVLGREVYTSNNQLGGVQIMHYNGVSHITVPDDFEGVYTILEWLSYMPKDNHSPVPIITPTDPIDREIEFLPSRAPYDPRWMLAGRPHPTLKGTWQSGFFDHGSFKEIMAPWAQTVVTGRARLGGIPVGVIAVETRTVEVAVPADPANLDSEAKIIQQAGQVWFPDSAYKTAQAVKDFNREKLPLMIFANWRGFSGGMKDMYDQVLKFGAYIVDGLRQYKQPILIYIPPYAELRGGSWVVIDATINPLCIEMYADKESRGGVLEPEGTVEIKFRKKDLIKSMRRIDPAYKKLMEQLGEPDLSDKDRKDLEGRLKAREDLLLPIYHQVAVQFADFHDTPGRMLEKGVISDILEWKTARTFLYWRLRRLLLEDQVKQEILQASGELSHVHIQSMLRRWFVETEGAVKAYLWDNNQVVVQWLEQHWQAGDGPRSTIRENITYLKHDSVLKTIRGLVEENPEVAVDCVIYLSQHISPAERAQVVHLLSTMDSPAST
The nature of data set [4]: Pharmacokinetic evaluation in C57BL/6 mice. In kind it is in vivo. The settings on record: mouse, plasma, male C57BL/6 mice. The method, then:
To test the pharmacokinetics of the compound in C57BL/6 mice Experimental materials:
C57BL/6 mice (male, 18 to 30 g, 7 to 9 weeks old, Shanghai Lingchang Biotechnology Co., Ltd.)
A clear solution of a test compound (0.5 mg/ml, 10% DMSO, 10% polyethylene glycol stearate, and 80% water) was injected via tail veins into 4 male C57BL/6 mice (overnight fasting, 7 to 9 weeks old), at a dose of 2.0 mg/kg. A suspension of the test compound or the clear solution thereof (1 mg/ml, 10% PEG400, 90% (0.5% methylcellulose+0.2% Tween 80)) was administered by gavage to 4 male C57BL/6 mice (overnight fasting, 7 to 9 weeks old), at a dose of 10 mg/kg.
Two mice were set in a group and subjected to blood sampling alternatively, with 4 to 5 blood sampling time points per mouse. At 0.0833 h (IV group only), 0.25 h, 0.5 h, 1.0 h, 2.0 h, 4.0 h, 6.0 h, 8.0 h, and 24 h after the mice were administered intravenously or by gavage, about 30 μL of blood was collected by saphenous vein puncture and placed in an anticoagulation tube supplemented with EDTA-K2, and the plasma was separated by centrifugation. The LC-MS/MS method was used to determine the blood drug concentration, and the WinNonlin™ Version 6.3 (Pharsight, Mountain View, Calif.) pharmacokinetic software was used to calculate the relevant pharmacokinetic parameters by the non-compartmental model linear logarithmic trapezoidal method.

Data set [5] in a line: Physical stability test of crystal form A as a solid under temperature, humidity and light (XRPD). The settings on record: 60° C. and 92.5% RH for 5 and 10 days; ICH visible and UV light; 60° C./75% RH 1 and 2 months; 40° C./75% RH 1, 2 and 3 months. In kind it is physicochemical. Here is the method:
In order to evaluate the solid stability of a crystal form A, the influencing factors (high temperature, high humidity and light), accelerated stability conditions and intermediate stability conditions were investigated for the crystal form A.
The crystal form A was placed under high temperature (60° C., closed dish) and high humidity (room temperature, 92.5% RH (relative humidity), wrapped in a parafilm with 5 to 10 small holes) for 5 days and 10 days. According to ICH conditions (visible illuminance reached 1.2E06 Lux·hrs, and ultraviolet illuminance reached 200 W·hrs/m^2), the crystal form A was placed under visible light and ultraviolet light (the shading control group was wrapped in tin foil) in closed dish, and meanwhile, the crystal form A was placed under accelerated stability conditions (60° C./75% RH, wrapped in a parafilm with 5 to 10 small holes) for 1 and 2 months, and under intermediate stability conditions (40° C./75% RH, wrapped in a parafilm with 5 to 10 small holes) for 1, 2 and 3 months. The samples after placement were characterized by XRPD to detect the change of the crystal form.

Molecules are shown by their SMILES.

As usually defined, the IC50 is the concentration that inhibits the measured activity by half. Lower therefore signals higher potency. For orientation: bioavailability means the share of a dose that reaches the circulation, judged against a reference dose that is usually intravenous. Take `COc1ccccc1[C@H](Cn1nc(C(C)(C)C(=O)O)c(=O)c2c(C)c(-c3ncco3)sc21)OC1CCOCC1` [Compound of formula (I)]: the concentration for half-maximal inhibition (IC50) in data set [1] turned out to be 14.1 nM. In data set [2], the “Efficacy on NAS versus reference compound” value was “achieves the same efficacy as the reference compound at a higher dose” and the “Efficacy on fibrosis versus reference compound” value is on record as “achieves the same efficacy as the reference compound at a higher dose”. The compound also gave a half-maximal inhibitory concentration (IC50) in data set [3] of 10.3 nM. Moreover, the bioavailability in data set [4] (po, gavage 10 mg/kg vs IV 2.0 mg/kg, read-out: Bioavailability F) turned out to be 66.7%. The clearance in data set [4] (IV 2.0 mg/kg and gavage 10 mg/kg study, route per parameter not given, read-out: Clearance rate) was determined as 27.3 mL/min/kg. Also, in data set [4] (IV 2.0 mg/kg and gavage 10 mg/kg study, route per parameter not given, read-out: Concentration integral AUC), the AUC turned out to be 7.21 µM·h. The half-life in data set [4] (IV 2.0 mg/kg and gavage 10 mg/kg study, route per parameter not given, read-out: Half-life T1/2 (converted)) is 1.85 h.

Regarding `COc1ccccc1[C@H](Cn1nc(C(C)(C)C(=O)O)c(=O)c2c(C)c(-c3ncco3)sc21)OC1CCOCC1` [crystal form A], the “Change of the crystal form (XRPD) after placement” value in data set [5] is “remains unchanged under all stability conditions”.

The record behind these values is patent US11578081B1, “Crystal form as inhibitor of ACC1 and ACC2, and preparation method therefor and use thereof” (ZHANGZHOU PIEN TZE HUANG PHARMACEUTICAL CO., LTD., priority 2019, dated 2023).
